Patent US20250281464A1, “TREATMENT OF PATHOGENIC NEISSERIA SP. INFECTION WITH TRIAZOLE ANTIFUNGAL AGENTS” (Virginia Tech Intellectual Properties, Inc., priority 2022, published 2025)
Values after ≈ are worked out from the molar mass of the structure shown. Read-outs that look alike come from different tables or passages of the source.

Columns and labels:
[1] = system: N. gonorrhoeae isolates; assay: MIC against panel of N. gonorrhoeae clinical isolates; type: cell-based, Neisseria gonorrhoeae; details: for MIC50 / MIC90: Neisseria gonorrhoeae; for MIC50: read-out: MIC50; for MIC90: read-out: MIC90
[2] = system: N. gonorrhoeae; assay: Drug library screen against N. gonorrhoeae; type: cell-based, Neisseria gonorrhoeae; details: Johns Hopkins Clinical Compounds Library, MCE FDA-Approved Drug Library, Pharmakon library; killing in clinical range
From the text: To identify drugs capable of killing Neisseria gonorrhoeae, the Johns Hopkins Clinical Compounds Library (1514), the MCE FDA-Approved Drug Library (2441), and the Pharmakon library (1600) were screened against N. gonorrhoeae. Positive hits that are capable of killing Neisseria gonorrhoeae in clinical range were identified (itraconazole, ravuconazole and isavuconazole).

[3] = system: L. crispatus; assay: MIC against commensal vaginal Lactobacillus strains; type: cell-based, Lactobacillus crispatus; details: for MIC: Lactobacillus crispatus
From the text: (§1) N. gonorrhoeae pathogenesis greatly depends on colonization of the reproductive tract. One of the natural barriers of such colonization is an intact healthy microbiome. Species of lactobacilli present in the genitourinary tract play a significant role in hindering colonization by Neisseria(1).
(§2) A healthy vaginal microbiome that is dominated by Lactobacillus spp. is less susceptible to N. gonorrhoeae infection and other sexually transmitted diseases (STDs). […] We tested the activity of azoles against important members of healthy vaginal microbiota that inhibit N. gonorrhoeae colonization.

[4] = system: L. johnsonii; assay: as above; type: cell-based, Lactobacillus johnsonii
From the text: as §1, §2

[5] = system: N. gonorrhoeae; assay: Female mouse model of N. gonorrhoeae genital tract infection; type: in vivo; details: N. gonorrhoeae FA1090, low dose 100 mg/kg orally
Procedure: FIG. 1—Efficacy of Ravuconazole one oral dose in a mouse model against N. gonorrhoeae FA1090. N. gonorrhoeae burden (average±standard deviation log 10 CFU/mL) after treatment with a single dose of ravuconazole (40 mg/kg) (fosravuconazole/E-1224 Prodrug) via oral gavage. As a negative control, mice (n=8) were administered the vehicle (water), As a positive control, a group of mice received a single intraperitoneal dose of ceftriaxone (15 mg/kg in water). Vaginal swabs were collected daily and cultured to determine the number of viable bacteria. The limit of detection was 10 CFU/mL. The data were analyzed via a two-way ANOVA followed by Dunnett's test for multiple comparisons. Asterisks indicate a statistical significant difference between mice treated with either ravuconazole or ceftriaxone as compared to the vehicle-treated mice.
FIG. 2A-2C—Efficacy of Ravuconazole one oral dose in a mouse model against drug-resistant strains. […] N. gonorrhoeae burden (average±standard deviation log 10 CFU/mL) after treatment with a single dose of ravuconazole (160 mg/kg) (fosravuconazole/E-1224 Prodrug) via oral gavage. […] The data were analyzed via a two-way ANOVA followed by Dunnett's test for multiple comparisons. […]
FIG. 3—Efficacy of 3 doses of isavuconazole against the vaginal burden of N. gonorrhoeae. […] The data were analyzed via a two-way ANOVA followed by Dunnett's test for multiple comparisons. […]

[6] = system: Bifidobacterium angulatum; assay: MIC against normal gut microbiota; type: cell-based; details: Bifidobacterium angulatum (1 strain)
From the text: (§3) Disrupting the intestinal microbiota using broad-spectrum antimicrobial therapy increases the susceptibility of hosts to C. difficile colonization.

[7] = system: Bacteroides dorei; assay: MIC against normal gut microbiota; type: cell-based; details: Bacteroides dorei (2 strains)
From the text: as §3

[8] = system: Lactobacillus casei; assay: MIC against normal gut microbiota; type: cell-based; details: Lactobacillus casei (1 strain)
From the text: as §3

[9] = system: Staphylococcus aureus; assay: MIC against normal gut microbiota; type: cell-based; details: Staphylococcus aureus (1 strain)
From the text: as §3

[10] = system: Lactobacillus brevis; assay: MIC against normal gut microbiota; type: cell-based; details: Lactobacillus brevis (1 strain)
From the text: as §3

[11] = system: Enterococcus faecium; assay: MIC against normal gut microbiota; type: cell-based; details: Enterococcus faecium (1 strain)
From the text: as §3

[12] = system: Enterococcus faecalis; assay: MIC against normal gut microbiota; type: cell-based; details: Enterococcus faecalis (1 strain)
From the text: as §3

[13] = system: Bacteroides fragilis; assay: MIC against normal gut microbiota; type: cell-based; details: Bacteroides fragilis (4 strains)
From the text: as §3

[14] = MIC against normal gut microbiota; type: cell-based
From the text: as §3

[15] = system: Lactobacillus rhamnosus; assay: MIC against normal gut microbiota; type: cell-based; details: Lactobacillus rhamnosus (1 strain)
From the text: as §3

[16] = system: L. gasseri; assay: MIC against commensal vaginal Lactobacillus strains; type: cell-based, Lactobacillus gasseri; details: for MIC: Lactobacillus gasseri
From the text: as §1, §2

[17] = system: N. gonorrhoeae; assay: Post-antibiotic effect (PAE) against N. gonorrhoeae; type: cell-based, Neisseria gonorrhoeae; details: 1 h exposure at 10×MIC
From the text: Determining the PAE of a new antimicrobial is an important step for dosing and has clinical importance.

[18] = Table 1, 104 N. gonorrhoeae isolates
[19] = Table 3, 103 N. gonorrhoeae isolates with different resistance profiles

MIC50 [1, 18]: 0.5 µg/mL (≈ 1.14 µM) | MIC90 [1, 18]: 1 µg/mL (≈ 2.29 µM) | MIC50 [1, 19]: 0.5 µg/mL (≈ 1.14 µM) | MIC90 [1, 19]: 1 µg/mL (≈ 2.29 µM) | MIC Range [1, 18]: 0.015 to 2 µg/mL | MIC Range [1, 19]: 0.015 to 4 µg/mL | MIC ([3]; L. crispatus HM-103): > 256 µg/mL | MIC ([3]; L. crispatus HM-371): > 256 µg/mL | MIC ([3]; L. crispatus HM-638): > 256 µg/mL | MIC Range ([3]; Table 6, L. crispatus (3 strains)): ≥256 µg/mL | MIC ([4]; Lactobacillus johnsonii, L. johnsonii HM-643): > 256 µg/mL | MIC Range ([4]; Table 6, L. johsonii (2 strains)): ≥256 µg/mL | MIC ([16]; L. gasseri HM-407): > 256 µg/mL | MIC ([16]; L. gasseri HM-642): > 256 µg/mL | MIC ([16]; L. gasseri HM-644): > 256 µg/mL | MIC ([16]; L. gasseri HM-647): > 256 µg/mL | MIC Range ([16]; Table 6, L. gasseri (4 strains)): ≥256 µg/mL
Compound: C[C@@H](c1nc(-c2ccc(C#N)cc2)cs1)[C@](O)(Cn1cncn1)c1cc(F)ccc1F [Isavuconazole]
screening outcome [2]: Positive hits | infected mice in which the infection was cleared ([5]; second day): 50% | infected mice in which the infection was cleared ([5]; third day of treatment): 100% | MIC Range [6]: >256 µg/mL | MIC Range [7]: >256 µg/mL | MIC Range [8]: >256 µg/mL | MIC Range [9]: >256 µg/mL | MIC Range [10]: >256 µg/mL | MIC Range [11]: >256 µg/mL | MIC Range [12]: >256 µg/mL | MIC Range [13]: >256 µg/mL | MIC Range ([14]; Bacteroides adolescentis (2 strains)): >256 µg/mL | MIC Range ([14]; Bacteroides breve (2 strains)): >256 µg/mL | MIC Range ([14]; Bacteroides longum (2 strains)): >256 µg/mL | MIC Range [15]: >256 µg/mL | PAE ([17]; strain FA 1090): 10 h | PAE ([17]; strain WHO P): 10 h | PAE ([17]; strain WHO Y): 10 h
